The source of these data is patent US20230011571A1, “SMALL MOLECULE FURIN INHIBITORS FOR TREATING INFECTIOUS DISEASES” (BP Asset V, Inc., priority 2019, published 2023).

Common to all, as to assay type: cell-based
For experiment [1], the system named is Marburg virus (MARV). Briefly: organism not typed. As to conditions: Vero, 72 h, read-out: Percent viral inhibition MARV.
Experiment [2] concerns Chikungunya virus (CHIKV). Briefly: microbe, parasite or virus in culture. As to conditions: Chikungunya virus, Vero, 48 h, read-out: Percent viral inhibition CHKV.
The subject of experiment [3] is dengue virus (DENV). Briefly: microbe, parasite or virus in culture. As to conditions: Dengue virus, Vero, 120 h, read-out: Percent viral inhibition DENY.

A word on the inhibition: it is the share of the control response that was lost under treatment. As to `O=C(O)CC1CCN(Cc2cc(Oc3cnc(N4CCN(C5CC5)CC4)nc3)nc(-c3cc(Cl)cc(Cl)c3)c2)CC1` [Example 233, 2-(1-((2-((2-(4-cyclopropylpiperazin-1-yl)pyrimidin-5-yl)oxy)-6-(3,5-dichlorophenyl)pyridin-4-yl)methyl)piperidin-4-yl)acetic acid], the figures for the inhibition at 1 µM in experiment [1], in experiment [2] and in experiment [3] were 57.1%, 16.3% and 55.7%, respectively.
Regarding `CCN1CCN(c2ncc(Oc3cc(CN4CCC(CC(=O)O)CC4)cc(-c4cc(Cl)cc(Cl)c4)n3)cn2)CC1` [Example 234, 2-(1-((2-(3,5-dichlorophenyl)-6-((2-(4-ethylpiperazin-1-yl)pyrimidin-5-yl)oxy)pyridin-4-yl)methyl)piperidin-4-yl)acetic acid], the inhibition at 1 µM stood at 49.1% in experiment [1], 26.7% in experiment [2] and 36.9% in experiment [3].
The matching figures for `CC(C)N1CCN(c2ncc(Oc3cc(CN4CCC(CC(=O)O)CC4)cc(-c4cc(Cl)cc(Cl)c4)n3)cn2)CC1` [Example 235, 2-(1-((2-(3,5-dichlorophenyl)-6-((2-(4-isopropylpiperazin-1-yl)pyrimidin-5-yl)oxy)pyridin-4-yl)methyl)piperidin-4-yl)acetic acid]: 69.8%, 27.4% and 0%.
Regarding `O=C(O)CC1CCN(Cc2cc(Oc3cnc(N4CCN(CCF)CC4)nc3)nc(-c3cc(Cl)cc(Cl)c3)c2)CC1` [Example 236, 2-(1-((2-(3,5-dichlorophenyl)-6-((2-(4-(2-fluoroethyl)piperazin-1-yl)pyrimidin-5-yl)oxy)pyridin-4-yl)methyl)piperidin-4-yl)acetic acid], the inhibition at 1 µM in experiment [1] is 68.5%; in experiment [2] it was 39.8%; in experiment [3] it was 64.5%.
The matching figures for `CC(O)CCN1CCN(c2ncc(Oc3cc(CN4CCC(CC(=O)O)CC4)cc(-c4cc(Cl)cc(Cl)c4)n3)cn2)CC1` (stereo not drawn) [Example 237, 2-(1-((2-(3,5-dichlorophenyl)-6-((2-(4-(3-hydroxybutyl)piperazin-1-yl)pyrimidin-5-yl)oxy)pyridin-4-yl)methyl)piperidin-4-yl)acetic acid]: 37.7%, 37% and 52.1%.
For the compound `CC(CCO)N1CCN(c2ncc(Oc3cc(CN4CCC(CC(=O)O)CC4)cc(-c4cc(Cl)cc(Cl)c4)n3)cn2)CC1` (stereo not drawn) [Example 238, 2-(1-((2-(3,5-dichlorophenyl)-6-((2-(4-(4-hydroxybutan-2-yl)piperazin-1-yl)pyrimidin-5-yl)oxy)pyridin-4-yl)methyl)piperidin-4-yl)acetic acid], the inhibition at 1 µM in experiment [1] was 56.8%; in experiment [2] it was 35.8%; in experiment [3], 66.1%.
The matching figures for `CC(CCN(C)C)N1CCN(c2ncc(Oc3cc(CN4CCC(CC(=O)O)CC4)cc(-c4cc(Cl)cc(Cl)c4)n3)cn2)CC1` (stereo not drawn) [Example 240, 2-(1-((2-(3,5-dichlorophenyl)-6-((2-(4-(4-(dimethylamino)butan-2-yl)piperazin-1-yl)pyrimidin-5-yl)oxy)pyridin-4-yl)methyl)piperidin-4-yl)acetic acid]: 67.4%, 28.5% and 36.8%.
On the same counts, the results for `CNC(=O)OCCN1CCN(c2ncc(Oc3cc(CN4CCC(CC(=O)O)CC4)cc(-c4cc(Cl)cc(Cl)c4)n3)cn2)CC1` [Example 241, 2-(1-((2-(3,5-dichlorophenyl)-6-((2-(4-(2-((methylcarbamoyl)oxy)ethyl)piperazin-1-yl)pyrimidin-5-yl)oxy)pyridin-4-yl)methyl)piperidin-4-yl)acetic acid] are 73.1%, 32.4% and 43.4%.
The matching figures for `CS(=O)(=O)CCCN1CCN(c2ncc(Oc3cc(CN4CCC(CC(=O)O)CC4)cc(-c4cc(Cl)cc(Cl)c4)n3)cn2)CC1` [Example 242, 2-(1-((2-(3,5-dichlorophenyl)-6-((2-(4-(3-(methylsulfonyl)propyl)piperazin-1-yl)pyrimidin-5-yl)oxy)pyridin-4-yl)methyl)piperidin-4-yl)acetic acid]: 55.5%, 31.9% and 16.4%.
Take `CS(=O)(=O)CCCN1CCN(c2ccc(Oc3cc(CN4CCC(CC(=O)O)CC4)cc(-c4cc(Cl)cc(Cl)c4)n3)cn2)CC1` [Example 243, 2-(1-((2-(3,5-dichlorophenyl)-6-((6-(4-(3-(methylsulfonyl)propyl)piperazin-1-yl)pyridin-3-yl)oxy)pyridin-4-yl)methyl)piperidin-4-yl)acetic acid]: the inhibition at 1 µM in experiment [1] turned out to be 46.8%; in experiment [2] it was 14.6%; in experiment [3] it was 37.9%.
On the same counts, the results for `COCCN1CCN(c2ccc(Oc3cc(CN4CCC(CC(=O)O)CC4)cc(-c4cc(Cl)cc(Cl)c4)n3)cn2)CC1` [Example 244, 2-(1-((2-(3,5-dichlorophenyl)-6-((6-(4-(2-methoxyethyl)piperazin-1-yl)pyridin-3-yl)oxy)pyridin-4-yl)methyl)piperidin-4-yl)acetic acid] are 61.4%, 6.34% and 14%.
Take `COCCN1CCN(c2ncc(Oc3cc(CN4CCC(CNC(C)=O)CC4)cc(-c4cc(Cl)cc(Cl)c4)n3)cn2)CC1` [Example 245, N-((1-((2-(3,5-dichlorophenyl)-6-((2-(4-(2-methoxyethyl)piperazin-1-yl)pyrimidin-5-yl)oxy)pyridin-4-yl)methyl)piperidin-4-yl)methyl)acetamide]: the figures for the inhibition at 1 µM in experiment [1], in experiment [2] and in experiment [3] were 53.9%, 24.1% and 53.3%, respectively.
The matching figures for `NS(=O)(=O)CCCN1CCN(c2ncc(Oc3cc(CN4CCC(CC(=O)O)CC4)cc(-c4cc(Cl)cc(Cl)c4)n3)cn2)CC1` [Example 246, 2-(1-((2-(3,5-dichlorophenyl)-6-((2-(4-(3-sulfamoylpropyl)piperazin-1-yl)pyrimidin-5-yl)oxy)pyridin-4-yl)methyl)piperidin-4-yl)acetic acid]: 39.9%, 24.6% and 50.8%.
The matching figures for `COCCN1CCN(c2ncc(Oc3cc(CN4CCC(CC(=O)O)CC4)cc(-c4cc(Cl)cc(Cl)c4)n3)cn2)CC1` [Example 247, 2-(1-((2-(3,5-dichlorophenyl)-6-((2-(4-(2-methoxyethyl)piperazin-1-yl)pyrimidin-5-yl)oxy)pyridin-4-yl)methyl)piperidin-4-yl)acetic acid]: 49.7%, 31.1% and 50%.
As for `CNC(=O)OCC1CCN(Cc2cc(Oc3cnc(N4CCN(CCC(=O)O)CC4)nc3)nc(-c3cc(Cl)cc(Cl)c3)c2)CC1` [Example 248, 3-(4-(5-((6-(3,5-dichlorophenyl)-4-((4-(((methylcarbamoyl)oxy)methyl)piperidin-1-yl)methyl)pyridin-2-yl)oxy)pyrimidin-2-yl)piperazin-1-yl) propanoic acid], the inhibition at 1 µM in experiment [1] came out at 49.6%; in experiment [2], 34.8%; in experiment [3], 81.2%.
